According to patent US6011032A, “Heterocyclic compounds for treating myocardial ischemia” (Pierre Fabre Medicament, priority 1995, dated 2000):
Structures can show the parent of a compound that is named as a salt.

Legend:
[1] = system: anaesthetized rabbits; assay: Reinfusion ischemia in anaesthetized rabbits (iv); assay type: in vivo, rabbit; conditions: 0.16 mg/kg iv
Text: (§1) The compounds of the present invention of formula I and the therapeutically acceptable salts thereof have advantageous pharmacological properties. These derivatives are active on cardiomyocytes by inhibiting the diastolic contraction induced by veratrine in isolated rat left atrium. These compounds are also active in vivo during reinfusion ischemia in anaesthetized rabbits: they inhibit the electrical disturbances in the ECG caused by the reinfusion ischemia without any appreciable hemodynamic effect and are not cardiac depressors. Such compounds are useful for preventive or curative purposes in the treatment of coronaropathies and cardiac and cerebral ischemia in all their forms and in the treatment of atherosclerosis.
Compounds of the present invention are also active via the venous route in the test of reinfusion ischemia in anaesthetized rabbits according to the method of Verscheure et al. (Fundam Clin Pharmacol (1993) 7, 385). The results for the compounds of Examples 1, 2, 11 and 15 are given in the table below by way of non-limiting example: […]

[2] = system: isolated rat left atrium; assay: Inhibition of contraction of isolated rat left atrium by veratrine; assay type: cell-based
Text: as §1
Inhibition of contraction of isolated rat left atrium by veratrine was carried out according to the technique of Le Grand et al. (Naunyn--Schmiedeberg's Arch Phazmacol (1993) 348 pp. 184-190). The results are given in the table below, in which the IC50 values are expressed in micromoles for certain compounds, by way of non-limiting examples: […]

SMILES	% arterial pressure variation [1]	% heart rate variation [1]	% inhibition ST segment [1] [%]	Number of arrythmias under reinfusion [1]	IC50 [2] [nM]
CC(C)NCC(O)COc1ccc(CC(N)=O)cc1 (centres unmarked) [Atenolol, reference compound]	-9%	-13%	64	4/6	–
COc1ccc([C@@H]2Sc3ccccc3N(CCN(C)C)C(=O)[C@@H]2OC(C)=O)cc1 [Diltiazem, reference compound]	-27%	-5%	61	0/6	–
CN(C1=Nc2ccccc2CS1)C1CCN(CCCCOc2ccc(F)cc2)CC1.O=C(O)/C=C\C(=O)O [Example 1, N-Methyl-N-[1-[4-(4-fluorophenoxy)butyl]piperid-4-yl]-4H-3,1-benzothiazin-2-amine hydrogen maleate]	+6%	+3%	76	3/5	150
CN(C1=Nc2ccccc2CS1)C1CCN(CCCOc2ccc(F)cc2)CC1.O=C(O)/C=C\C(=O)O [Example 2, N-Methyl-N-[1-[3-(4-fluorophenoxy)propyl]piperid-4-yl]-4H-3,1-benzothiazin-2-amine hydrogen maleate]	+4%	-3%	76	1/5	–
CN(C1=Nc2ccccc2CS1)C1CCN(CCCCOc2ccc(F)c(F)c2)CC1 [Example 11, N-Methyl-N-[1-[4-(3,4-difluorophenoxy)butyl]piperid-4-yl]-4H-3,1-benzothiazin-2-armine hydrogen maleate]	+3%	-1%	71	1/5	–
CN(C1=Nc2ccccc2CS1)C1CCN(CC(O)COc2ccc(F)cc2)CC1.Cl.Cl (centres unmarked) [Example 15, N-Methyl-N-[1-[2-hydroxy-3-(4-fluorophenoxy)propyl]-piperid-4-yl]-4H-3,1-benzothiazin-2-amine dihydrochloride]	+5%	0%	90	1/5	320
CN(c1nc2ccccc2s1)C1CCN(CCCCOc2ccc(F)cc2)CC1 [R 56865, N-(1-(4-(4-fluorophenoxy)butyl)piperid-4-yl)-N-methyl-2-benzothiazolamine, reference compound]	–	–	–	–	250
CN(c1nc2ccccc2s1)C1CCN(CC(O)COc2ccc(F)cc2)CC1 (centres unmarked) [Sabeluzole, N-(1-(2-hydroxy-3-(4-fluorophenoxy)propyl)piperid-4-yl)-N-methyl-2-benzothiazolamine, reference compound]	2%	-5%	84	1/5	5100
